Assay results published in ChEMBL document CHEMBL4507319 (2021).

Legend:
[1] = molecular target: Serine/threonine-protein kinase PAK 5 (Homo sapiens) (UniProt Q9P286); test: PAK5(h) Eurofins kinase panel; details: Compound concentration 1.0 uM
[2] = molecular target: Cyclin-dependent kinase-like 1 (Homo sapiens) (UniProt Q00532); test: CDKL1(h) Eurofins kinase panel; details: Compound concentration 1.0 uM
[3] = molecular target: CDK3/cyclin E (Homo sapiens) (UniProt P24864+O96020+Q00526); test: CDK3/cyclinE(h) Eurofins kinase panel; format: protein-complex assay; details: Compound concentration 1.0 uM
[4] = molecular target: Death-associated protein kinase 2 (Homo sapiens) (UniProt Q9UIK4); test: DAPK2(h) Eurofins kinase panel; details: Compound concentration 1.0 uM
Sequence of Death-associated protein kinase 2 (Homo sapiens) (Q9UIK4 whole entry, looked up): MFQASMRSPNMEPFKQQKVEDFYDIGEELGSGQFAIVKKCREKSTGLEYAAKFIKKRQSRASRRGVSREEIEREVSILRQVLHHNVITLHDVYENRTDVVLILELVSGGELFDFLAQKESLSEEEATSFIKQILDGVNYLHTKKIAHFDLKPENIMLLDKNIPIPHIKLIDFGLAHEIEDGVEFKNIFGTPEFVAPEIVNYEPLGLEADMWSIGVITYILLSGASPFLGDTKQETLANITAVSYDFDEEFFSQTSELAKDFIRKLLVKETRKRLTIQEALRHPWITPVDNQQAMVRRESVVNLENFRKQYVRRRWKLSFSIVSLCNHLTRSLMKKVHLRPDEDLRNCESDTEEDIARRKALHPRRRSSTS

[5] = molecular target: Cyclin-dependent kinase 5/CDK5 activator 1 (Homo sapiens) (UniProt Q00535+Q15078); test: CDK5/p25(h) Eurofins kinase panel; format: protein-complex assay; details: Compound concentration 1.0 uM
Sequence of Cyclin-dependent kinase 5/CDK5 activator 1 (Homo sapiens) (Q00535 whole entry): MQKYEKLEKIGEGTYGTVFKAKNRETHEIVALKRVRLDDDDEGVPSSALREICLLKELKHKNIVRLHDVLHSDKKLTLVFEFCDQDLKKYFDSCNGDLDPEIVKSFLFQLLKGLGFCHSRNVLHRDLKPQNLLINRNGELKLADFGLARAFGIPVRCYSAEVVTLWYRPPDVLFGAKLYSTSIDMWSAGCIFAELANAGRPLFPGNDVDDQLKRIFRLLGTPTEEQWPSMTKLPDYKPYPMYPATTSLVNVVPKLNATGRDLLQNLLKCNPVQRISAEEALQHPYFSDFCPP
Sequence of Cyclin-dependent kinase 5/CDK5 activator 1 (Homo sapiens) (Q15078 99-307 partner limits assumed): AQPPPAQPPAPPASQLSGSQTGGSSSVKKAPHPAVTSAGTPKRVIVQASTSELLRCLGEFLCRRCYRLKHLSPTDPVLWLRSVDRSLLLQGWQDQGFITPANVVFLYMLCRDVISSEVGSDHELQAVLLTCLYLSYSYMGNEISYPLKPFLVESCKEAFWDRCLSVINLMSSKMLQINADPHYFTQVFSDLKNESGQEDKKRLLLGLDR

[6] = molecular target: Tyrosine-protein kinase BTK (Homo sapiens) (UniProt Q06187); test: BTK(h) Eurofins kinase panel; details: Compound concentration 1.0 uM
Sequence of Tyrosine-protein kinase BTK (Homo sapiens) (Q06187 whole entry): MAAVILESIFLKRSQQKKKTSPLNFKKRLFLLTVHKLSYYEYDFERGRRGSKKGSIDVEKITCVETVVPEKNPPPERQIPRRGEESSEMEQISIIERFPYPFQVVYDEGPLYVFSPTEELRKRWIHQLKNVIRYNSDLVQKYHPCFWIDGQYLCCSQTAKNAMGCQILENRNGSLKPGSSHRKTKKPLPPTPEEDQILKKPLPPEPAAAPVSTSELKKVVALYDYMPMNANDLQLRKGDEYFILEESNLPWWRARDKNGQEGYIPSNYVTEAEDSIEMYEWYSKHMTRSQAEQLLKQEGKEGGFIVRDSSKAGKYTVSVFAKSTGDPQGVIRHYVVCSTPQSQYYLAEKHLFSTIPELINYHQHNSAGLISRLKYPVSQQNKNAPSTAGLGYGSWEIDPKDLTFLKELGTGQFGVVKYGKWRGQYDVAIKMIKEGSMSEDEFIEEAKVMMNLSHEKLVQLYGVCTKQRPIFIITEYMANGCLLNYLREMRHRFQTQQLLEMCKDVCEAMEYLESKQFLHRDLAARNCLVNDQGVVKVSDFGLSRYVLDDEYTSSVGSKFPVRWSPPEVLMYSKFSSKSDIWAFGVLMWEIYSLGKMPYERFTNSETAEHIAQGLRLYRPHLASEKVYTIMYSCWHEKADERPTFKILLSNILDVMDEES

[7] = molecular target: Serine/threonine-protein kinase PAK 1 (Homo sapiens) (UniProt Q13153); test: PAK1(h) Eurofins kinase panel; details: Compound concentration 1.0 uM
[8] = molecular target: Serine/threonine-protein kinase PRP4 homolog (Homo sapiens) (UniProt Q13523); test: PRP4(h) Eurofins kinase panel; details: Compound concentration 1.0 uM
[9] = molecular target: Ribosomal protein S6 kinase alpha-2 (Homo sapiens, UniProt Q15349); details: Compound concentration 1.0 uM
[10] = molecular target: Tyrosine-protein kinase SYK (Homo sapiens) (UniProt P43405); test: Syk(h) Eurofins kinase panel; details: Compound concentration 1.0 uM
[11] = molecular target: Ephrin type-A receptor 7 (Homo sapiens) (UniProt Q15375); test: EphA7(h) Eurofins kinase panel; details: Compound concentration 1.0 uM
Sequence of Ephrin type-A receptor 7 (Homo sapiens) (Q15375 28-998 limits assumed): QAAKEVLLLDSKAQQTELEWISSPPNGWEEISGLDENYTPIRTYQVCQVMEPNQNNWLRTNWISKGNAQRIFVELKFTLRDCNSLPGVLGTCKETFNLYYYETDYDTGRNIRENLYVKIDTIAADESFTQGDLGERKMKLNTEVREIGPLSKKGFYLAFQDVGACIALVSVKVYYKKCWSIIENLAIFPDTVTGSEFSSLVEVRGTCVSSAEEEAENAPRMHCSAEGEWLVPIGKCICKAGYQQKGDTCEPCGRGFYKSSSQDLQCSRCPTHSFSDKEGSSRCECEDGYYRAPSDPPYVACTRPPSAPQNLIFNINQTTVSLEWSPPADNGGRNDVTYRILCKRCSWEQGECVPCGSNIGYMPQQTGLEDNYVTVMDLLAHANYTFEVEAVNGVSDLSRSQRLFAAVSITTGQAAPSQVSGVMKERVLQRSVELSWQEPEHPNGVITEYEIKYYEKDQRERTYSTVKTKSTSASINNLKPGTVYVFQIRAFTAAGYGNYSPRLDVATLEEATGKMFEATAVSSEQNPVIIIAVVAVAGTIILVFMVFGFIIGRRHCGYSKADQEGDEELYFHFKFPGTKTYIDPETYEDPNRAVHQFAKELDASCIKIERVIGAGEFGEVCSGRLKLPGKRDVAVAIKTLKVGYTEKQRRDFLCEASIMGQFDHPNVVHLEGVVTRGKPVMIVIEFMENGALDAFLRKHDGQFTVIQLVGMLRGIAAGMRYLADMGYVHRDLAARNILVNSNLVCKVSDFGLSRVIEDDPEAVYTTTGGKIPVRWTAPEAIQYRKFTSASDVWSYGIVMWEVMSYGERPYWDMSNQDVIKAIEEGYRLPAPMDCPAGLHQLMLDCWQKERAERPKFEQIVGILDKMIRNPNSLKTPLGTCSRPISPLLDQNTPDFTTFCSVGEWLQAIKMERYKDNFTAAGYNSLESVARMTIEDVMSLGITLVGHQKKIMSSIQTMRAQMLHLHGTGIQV

Ramos = test: Ramos cell line Proliferation assay; format: functional, Homo sapiens; details: time 3 day
[12] = molecular target: Serine/threonine-protein kinase 24 (Homo sapiens, UniProt Q9Y6E0)
Sequence of Serine/threonine-protein kinase 24 (Q9Y6E0 whole entry): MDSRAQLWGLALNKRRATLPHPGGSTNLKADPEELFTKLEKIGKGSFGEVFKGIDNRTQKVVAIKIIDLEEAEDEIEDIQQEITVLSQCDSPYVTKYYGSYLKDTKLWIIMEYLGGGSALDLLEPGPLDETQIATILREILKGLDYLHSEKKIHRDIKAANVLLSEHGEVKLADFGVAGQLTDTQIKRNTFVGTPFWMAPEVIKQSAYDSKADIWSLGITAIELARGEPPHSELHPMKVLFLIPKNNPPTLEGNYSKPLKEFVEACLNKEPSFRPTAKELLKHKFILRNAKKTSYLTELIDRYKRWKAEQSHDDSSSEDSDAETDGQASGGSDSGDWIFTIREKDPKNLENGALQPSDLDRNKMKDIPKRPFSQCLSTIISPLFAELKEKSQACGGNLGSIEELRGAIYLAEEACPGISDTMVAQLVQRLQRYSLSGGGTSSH

[13] = molecular target: Protein-tyrosine kinase 6 (Homo sapiens) (UniProt Q13882); test: BRK(h) Eurofins kinase panel; details: Compound concentration 1.0 uM
[14] = molecular target: T1, Rhodopsin kinase GRK7 (Homo sapiens) (UniProt Q8WTQ7); test: GRK7(h) Eurofins kinase panel; details: Compound concentration 1.0 uM
T1 sequence (whole entry): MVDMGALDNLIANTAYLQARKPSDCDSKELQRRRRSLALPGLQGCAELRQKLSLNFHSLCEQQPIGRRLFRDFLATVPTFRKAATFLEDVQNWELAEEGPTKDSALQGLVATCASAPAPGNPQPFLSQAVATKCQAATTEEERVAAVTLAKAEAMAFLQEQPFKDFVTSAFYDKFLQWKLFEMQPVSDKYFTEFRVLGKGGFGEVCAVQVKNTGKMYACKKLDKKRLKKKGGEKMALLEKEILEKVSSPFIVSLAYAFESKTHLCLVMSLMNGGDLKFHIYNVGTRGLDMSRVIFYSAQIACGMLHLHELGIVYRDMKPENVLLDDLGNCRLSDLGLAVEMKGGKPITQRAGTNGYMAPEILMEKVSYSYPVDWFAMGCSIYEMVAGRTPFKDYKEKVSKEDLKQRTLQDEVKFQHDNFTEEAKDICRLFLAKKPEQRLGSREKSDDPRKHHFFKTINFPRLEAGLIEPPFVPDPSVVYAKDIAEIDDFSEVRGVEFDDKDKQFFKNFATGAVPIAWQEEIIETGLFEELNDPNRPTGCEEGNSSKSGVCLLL

[15] = molecular target: T2, Activin receptor type-1B (Homo sapiens) (UniProt P36896); test: ALK4(h) Eurofins kinase panel; details: Compound concentration 1.0 uM
T2 sequence (whole entry): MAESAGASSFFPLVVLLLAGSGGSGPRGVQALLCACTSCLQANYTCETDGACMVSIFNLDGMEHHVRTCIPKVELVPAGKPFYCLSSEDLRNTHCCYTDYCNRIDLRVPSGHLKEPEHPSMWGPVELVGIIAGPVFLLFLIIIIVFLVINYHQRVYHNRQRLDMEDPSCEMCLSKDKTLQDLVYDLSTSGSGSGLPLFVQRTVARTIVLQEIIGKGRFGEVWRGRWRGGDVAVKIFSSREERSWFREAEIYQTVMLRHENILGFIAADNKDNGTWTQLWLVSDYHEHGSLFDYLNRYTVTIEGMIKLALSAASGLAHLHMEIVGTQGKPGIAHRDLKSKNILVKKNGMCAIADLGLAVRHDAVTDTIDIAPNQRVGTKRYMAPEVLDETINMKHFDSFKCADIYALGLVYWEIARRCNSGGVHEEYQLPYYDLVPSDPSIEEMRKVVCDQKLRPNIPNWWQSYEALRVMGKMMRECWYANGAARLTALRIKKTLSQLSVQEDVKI

[16] = molecular target: Cyclin-dependent kinase 2/cyclin E (Homo sapiens) (UniProt P24864+P24941+O96020); test: CDK2/cyclinE(h) Eurofins kinase panel; format: protein-complex assay; details: Compound concentration 1.0 uM
IMR-5/75 = test: IMR-5/75 cell line Proliferation assay; format: functional, Homo sapiens; details: time 6 day
[17] = molecular target: Ribosomal protein S6 kinase alpha-5 (Homo sapiens, UniProt O75582)
CWR22R = test: 22Rv1 cell line Proliferation assay; format: functional, Homo sapiens; details: time 6 day
[18] = molecular target: Ephrin type-A receptor 2 (Homo sapiens) (UniProt P29317); test: EphA2(h) Eurofins kinase panel; details: Compound concentration 1.0 uM
[19] = molecular target: CDK4/Cyclin D3 (Homo sapiens) (UniProt P11802+P30281); test: CDK4/cyclinD3(h) Eurofins kinase panel; format: protein-complex assay; details: Compound concentration 1.0 uM
[20] = molecular target: Protein kinase C theta type (Homo sapiens) (UniProt Q04759); details: Compound concentration 1000.0 nM
Sequence of Protein kinase C theta type (Homo sapiens) (Q04759 whole entry, looked up): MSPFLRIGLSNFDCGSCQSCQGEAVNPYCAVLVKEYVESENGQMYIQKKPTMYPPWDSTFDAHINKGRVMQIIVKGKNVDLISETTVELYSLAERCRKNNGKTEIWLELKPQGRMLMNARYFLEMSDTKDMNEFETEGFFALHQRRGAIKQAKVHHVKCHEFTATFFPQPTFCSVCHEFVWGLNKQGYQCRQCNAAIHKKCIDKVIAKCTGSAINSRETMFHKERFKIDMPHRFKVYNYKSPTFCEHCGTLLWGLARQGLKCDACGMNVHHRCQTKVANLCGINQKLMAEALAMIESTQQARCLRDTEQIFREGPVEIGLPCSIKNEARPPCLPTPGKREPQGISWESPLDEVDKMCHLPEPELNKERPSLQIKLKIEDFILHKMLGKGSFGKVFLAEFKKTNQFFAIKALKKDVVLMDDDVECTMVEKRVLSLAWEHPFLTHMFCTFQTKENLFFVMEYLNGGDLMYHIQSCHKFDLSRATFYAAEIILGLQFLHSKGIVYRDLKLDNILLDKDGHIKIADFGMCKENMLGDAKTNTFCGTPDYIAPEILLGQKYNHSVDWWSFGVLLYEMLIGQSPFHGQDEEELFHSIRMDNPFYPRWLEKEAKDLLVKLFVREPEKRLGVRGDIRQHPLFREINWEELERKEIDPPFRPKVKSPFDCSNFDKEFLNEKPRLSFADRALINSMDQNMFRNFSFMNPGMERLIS

[21] = molecular target: Histamine H3 receptor (Homo sapiens) (UniProt Q9Y5N1); details: Compound concentration 10.0 uM
Sequence of Histamine H3 receptor (Homo sapiens) (Q9Y5N1 whole entry): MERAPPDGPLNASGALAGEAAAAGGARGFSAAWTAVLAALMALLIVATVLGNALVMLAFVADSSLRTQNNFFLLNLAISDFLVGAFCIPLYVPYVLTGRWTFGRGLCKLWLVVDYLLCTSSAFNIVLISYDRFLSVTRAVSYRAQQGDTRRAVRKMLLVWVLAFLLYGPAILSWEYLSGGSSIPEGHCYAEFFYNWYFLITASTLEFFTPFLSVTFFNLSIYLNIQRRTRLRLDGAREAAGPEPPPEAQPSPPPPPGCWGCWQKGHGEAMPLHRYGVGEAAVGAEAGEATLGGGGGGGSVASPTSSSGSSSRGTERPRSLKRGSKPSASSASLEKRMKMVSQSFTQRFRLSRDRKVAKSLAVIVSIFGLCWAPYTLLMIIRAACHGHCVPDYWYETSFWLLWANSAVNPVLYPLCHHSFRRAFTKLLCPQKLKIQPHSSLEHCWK

Sequence of Serine/threonine-protein kinase PAK 5 (Homo sapiens) (Q9P286 whole entry, looked up): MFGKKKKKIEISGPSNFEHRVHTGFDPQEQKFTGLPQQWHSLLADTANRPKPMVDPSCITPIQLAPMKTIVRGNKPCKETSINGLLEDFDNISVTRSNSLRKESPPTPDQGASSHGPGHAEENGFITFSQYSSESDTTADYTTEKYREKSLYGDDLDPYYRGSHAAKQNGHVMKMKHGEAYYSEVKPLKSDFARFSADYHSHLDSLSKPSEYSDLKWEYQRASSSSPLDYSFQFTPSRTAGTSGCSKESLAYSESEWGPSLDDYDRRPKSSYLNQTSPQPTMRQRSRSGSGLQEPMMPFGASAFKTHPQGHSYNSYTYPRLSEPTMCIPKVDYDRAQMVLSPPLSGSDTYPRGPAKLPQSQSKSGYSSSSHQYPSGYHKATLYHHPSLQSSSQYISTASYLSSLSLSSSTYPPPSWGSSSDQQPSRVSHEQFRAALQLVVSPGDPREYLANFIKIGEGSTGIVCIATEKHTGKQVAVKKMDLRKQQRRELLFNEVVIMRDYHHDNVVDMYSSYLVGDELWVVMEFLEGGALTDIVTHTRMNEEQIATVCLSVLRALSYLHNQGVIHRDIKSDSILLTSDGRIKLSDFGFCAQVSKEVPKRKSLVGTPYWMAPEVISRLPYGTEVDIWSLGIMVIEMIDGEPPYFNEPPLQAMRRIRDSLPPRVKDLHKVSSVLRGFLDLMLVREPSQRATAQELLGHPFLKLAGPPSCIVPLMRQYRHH

## CCc1ccccc1C(=O)Nc1n[nH]c2c(C)c(F)c(C3C(C#N)=C(C)N(C)C(C)=C3C#N)cc12 [BAY-3827]
[1]
  % residual kinase activity: 86%
[2]
  % residual kinase activity: 95%
[3]
  % residual kinase activity: 100%
[4]
  % residual kinase activity: 96%
[5]
  % residual kinase activity: 98%
[6]
  % residual kinase activity: 96%
[7]
  % residual kinase activity: 94%
[8]
  % residual kinase activity: 96%
[9]
  % residual kinase activity: 5%
[10]
  % residual kinase activity: 106%
[11]
  % residual kinase activity: 91%
Ramos
  Cell Proliferation IC50: 12100 nM
[12]
  IC50: 94 nM
[13]
  % residual kinase activity: 104%
[14]
  % residual kinase activity: 78%
[15]
  % residual kinase activity: 90%
[16]
  % residual kinase activity: 92%
IMR-5/75
  Cell Proliferation IC50: 21300 nM
[17]
  IC50: 43 nM
CWR22R
  Cell Proliferation IC50: 5550 nM
[18]
  % residual kinase activity: 88%
[19]
  % residual kinase activity: 112%

## CC1=C(C#N)C(c2ccc3c(c2)c(NC(=O)c2ccccc2C)nn3C)C(C#N)=C(C)N1 [BAY-974]
[20]
  residual activity: 55%
[21]
  inhibition: 1.89%
